Reference: patent US12606542B2, “[(1,5-diheteroaryl-1H-1,2,4-triazol-3-yl)oxy] acetic acid derivatives as safeners for the protection of useful plants and crop plants” (BAYER AKTIENGESELLSCHAFT, priority 2020, dated 2026)

System: summer wheat (TRZAS; cv. Triso)
Experiment: Reduction of damage by mesosulfuron-methyl on summer wheat (greenhouse safener test, post-emergence)
Format: in vivo
Parameters: key: 0: no reduction in damage (appearance corresponding to the herbicide control); 1: slight reduction in damage; 2: distinct reduction in damage; 3: significant reduction in damage; 4: complete reduction in damage (appearance corresponding to the untreated control)
Settings: safener 100 g/ha as WP spray at early leaf stage (BBCH10-BBCH12), then mesosulfuron-methyl 40-60 g/ha; visual assessment 9-13 days after application; crop plant TRZAS
Description: 2.1 Relative Action of Selected Compounds of the Invention Using the Example of Reduction of Damage by Mesosulfuron-Methyl on Summer Wheat (TRZAS) The seeds of the crop plants to be treated are laid out in sandy loam in plastic pots (diameter ˜4 cm), covered with soil and grown in a greenhouse under good conditions for germination and growth. The trial plants were treated at the early leaf stage (BBCH10-BBCH12). In the course of this, the inventive compounds of the general formula (I) formulated in the form of wettable powders (WP) were sprayed onto the above-ground parts of the plants as an aqueous suspension with a water application rate corresponding to 800 l/ha with addition of wetting agent (e.g. 0.2% Genapol-LRO or 0.2% Mero) in the specified dose. This was followed by the application of the herbicide. For this purpose, mesosulfuron-methyl, formulated in the form of water-dispersible granules (WG), was sprayed onto the above-ground parts of the plants in the form of an aqueous dispersion with a water application rate corresponding to 800 l/ha with addition of wetting agent (e.g. 0.2% Genapol-LRO or 1 l/ha Biopower) in a dose of 40-60 g/ha. […] 9-13 days after application, the efficacy of the test compounds was assessed visually. […]

**Q.** How did the “Efficacy of the safener (efficacy code)” value turn out when COC(=O)COc1nc(-c2ccc(F)cn2)n(-c2ccc(Cl)cn2)n1 [Example I.31-10, Methyl {[1-(5-chloropyridin-2-yl)-5-(5-fluoropyridin-2-yl)-1H-1,2,4-triazol-3-yl]oxy}acetate] was run?
**A.** 2
